Laboratory results as given in US20050267072A1, “Pharmaceutical compositions containing dually acting inhibitors of neutral endopeptidase for the treatment of sexual dysfunction” (Solvay Pharmaceuticals GmbH, priority 2004, published 2005).
pIC50: −log10 of the molar value. Where two headings read alike, the source gives them in different places.

What was measured:
[1] = molecular target: T1, hSEP (His6-tagged hSEP ectodomain) (Homo sapiens, UniProt Q495T6); assay: Inhibition of enzymatic breakdown of CNP and VIP by hSEP (in vitro enzymatic assay, HPLC); type: biochemical; conditions: 15 min preincubation, 60 min at 37° C.
T1 construct: His6-tagged hSEP ectodomain; His6; purchased Innogenetics, Ghent, Belgium
T1 sequence (Q495T6 49-779 limits assumed): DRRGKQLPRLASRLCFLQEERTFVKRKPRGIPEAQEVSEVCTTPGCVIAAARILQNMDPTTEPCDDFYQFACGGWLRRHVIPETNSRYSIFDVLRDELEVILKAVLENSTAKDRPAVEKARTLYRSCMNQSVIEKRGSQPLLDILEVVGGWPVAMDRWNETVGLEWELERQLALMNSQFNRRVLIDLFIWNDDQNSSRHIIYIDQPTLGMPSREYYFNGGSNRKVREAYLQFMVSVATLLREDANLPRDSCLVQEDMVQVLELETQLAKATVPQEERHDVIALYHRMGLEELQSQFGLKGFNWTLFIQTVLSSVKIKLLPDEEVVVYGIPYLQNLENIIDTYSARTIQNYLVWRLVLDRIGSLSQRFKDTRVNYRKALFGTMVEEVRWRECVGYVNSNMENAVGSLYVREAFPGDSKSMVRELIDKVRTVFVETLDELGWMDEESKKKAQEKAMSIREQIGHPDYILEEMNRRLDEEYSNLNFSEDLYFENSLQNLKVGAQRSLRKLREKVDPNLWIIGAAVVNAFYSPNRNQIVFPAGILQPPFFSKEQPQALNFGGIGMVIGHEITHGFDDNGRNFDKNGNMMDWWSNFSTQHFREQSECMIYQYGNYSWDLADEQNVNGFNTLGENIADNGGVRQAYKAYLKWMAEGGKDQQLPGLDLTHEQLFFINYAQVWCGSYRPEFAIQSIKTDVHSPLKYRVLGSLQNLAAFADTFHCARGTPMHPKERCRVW
Description: (§1) 1. Inhibition of Enzymatic Breakdown of CNP and VIP by the Test Compounds
(§2) The inhibition of the enzymatic breakdown of CNP and VIP by the test compounds of Formula I according to the invention was measured in an enzymatic in vitro assay according to the following protocol:
(§3) • a) hSEP (sol hu)(his)6; or: His6-tagged hSEP ectodomain. • stock solution: 53 μg/ml in 20 mM HEPES pH 7.2, 5% glycerol, 0.005% Tween20, 100 mM NaCl, purity>99% • working solution: stock solution diluted with assay buffer to 5 μg/ml • Supplier: Innogenetics, Ghent, Belgium. Preparation and purification of the protein were performed as described in WO 02/094176. • b) NEP (prepared from pig kidney cortex) • stock solution: 120 μg/ml in 20 mM bisTris, purity>95% • working solution: stock solution diluted with assay buffer to 5 μg/ml • Supplier: Dr. Philippe Crine, Univ. of Montreal, Canada Substrates: • a) VIP • b) CNP (32-53) • stock solution: 100 μM in assay buffer • Supplier: Bachem, Weil am Rhein, Germany
(§4) Assay buffer: 100 mM Tris pH 7.0, 250 mM NaCl
(§5) All test compounds were dissolved in DMSO at 10 mM and further diluted with assay buffer.
(§6) 70 μl of assay buffer, 10 μl of enzyme working solution (NEP or hSEP) and 10 μl of a test compound solution were mixed in an Eppendorf vial and preincubated at 37° C. for 15 minutes. Then, 10 μl of peptide stock solution (VIP or CNP) was added and the reaction mixture was incubated at 37° C. for 60 min. to allow enzymatic hydrolysis. The enzymatic reaction was subsequently terminated by heating to 95° C. for 5 min. After centrifugation (Heraeus Biofuge B, 3 min) the supernatant was subjected to HPLC.
(§7) For separating the remaining substrate from the cleavage products, a reversed phase HPLC technique with a CC 125/4 Nucleosil 300/5 C18 RP column and a CC 8/4 Nucleosil 100/5 C18 precolumn (Macherey-Nagel, Duren, Germany) was used. 60 μl of the reaction samples were injected into the HPLC and the column was eluted at a flow rate of 1 ml/min with the following gradient: […]
(§8) All peptides were detected by absorbance at 214 nm (UV spectroscopy).
(§9) Basis of the calculation of % inhibition is the peak area of the undegraded peptide (VIP or CNP) for an inhibitor containing sample X in comparison to samples containing only peptide (blank) or peptide and enzyme without inhibitor (control) according to the following equation: % inhib=100*(X−control)/(blank−control)
(§10) All samples were run in duplicate and mean values were used. A solvent control (0.1% DMSO) was added to each assay run.

[2] = molecular target: T2, NEP (prepared from pig kidney cortex) (Sus scrofa, UniProt A0A4X1SQE6); assay: Inhibition of enzymatic breakdown of CNP and VIP by NEP (in vitro enzymatic assay, HPLC); type: biochemical; conditions: 15 min preincubation, 60 min at 37° C.
Description: as §1, §2, §3, §4, §5, §6, §7, §8, §9, §10

human corpus cavernosum = assay: Big-ET-induced contraction of human cavernosal strips in vitro; type: cell-based; conditions: compounds at 10 μM, 20 min incubation; big-ET-1 10^−8 M; mean of n corpus cavernosum samples
Description: 2. Influence of Test Compounds on Big-ET-Induced Contraction of Human Cavernosal Strips In Vitro
Human erectile tissues were obtained from the corpus cavernosum of 9 patients undergoing surgery for implantation of penile prosthesis as treatment of erectile dysfunction or penile congenital curvature. After surgery, the tissue samples were transported and stored at 4° C. in RPMI-1640 medium containing HEPES (23.8 mM), penicillin (100 IU/ml) and streptomycin (0.1 mg/ml) until use (within 24 hours). Eight sections of 4×2×2 mm were excised from the corpus cavernosum of each donor for each experiment. Cavernosal strips were suspended in 5 ml organ chambers filled with Krebs-HEPES buffer. Organ chambers were maintained at 37° C. and continuously bubbled with 95% O2 and 5% CO2 to maintain a pH at 7.4. The cavernosal strips were connected to force transducers for isometric tension recording (Pioden controls Ltd, UK), and an initial tension of 1 g was applied. Following amplification, the tension changes were digitalized via a Mac Lab™/8 using Chart software (AD Instruments Ltd). The tissue preparation were allowed to equilibrate for 90 minutes, while being washed periodically (every 15 minutes) with fresh Krebs-HEPES buffer. When a stable resting tension was attained, the strips were set to at least 500 mg of basal tension. Following the equilibration period, the erectile tissues were primed with KCl 80 mM during 10 min. Once this priming period was achieved, the strips were washed by fresh Krebs-HEPES solution and allowed to re-equilibrate for 30 minutes at 500 mg of tension.
Once the strips were stabilized after the priming period, they were incubated with one of the following compounds (all at 10 μM, unless indicated otherwise) during 20 min: compound of Formula IV, compound of Formula V, SM-19712 (a selective and potent endothelin converting enzyme-1 inhibitor), DL-thiorphan (a selective and potent NEP inhibitor), and the combination of SM-19712, 10 μM and DL-thiorphan, and the common vehicle (phosphate buffer).
The strips were then exposed to the half-maximally effective concentration of big-ET-1 (10^−8 M) determined in the preliminary experiments until a stable response was obtained.
Contractile responses were expressed as absolute change in maximal developed tension (in mg). To reduce the potential heterogeneity of responses between strips, the contraction to big-ET-1 was normalized by the contractile responses to KCl 80 mM obtained during the priming period.
The results are from duplicate or triplicate determinations from a single corpus cavernosum sample were averaged and values are expressed as percentage of the contractile responses induced by 80 mM of KCl, as mean […]SEM, for n corpus cavernosum samples.

[3] = molecular target: T1, hSEP (His6-tagged hSEP ectodomain); assay: Activity assay: breakdown of VIP and CNP by hSEP; type: biochemical; conditions: 120 min at 37° C., no inhibitor
Description: as §3, §4
(§11) 80 μl of assay buffer, 10 μl of enzyme working solution (NEP or hSEP) and 10 μl of peptide stock solution (VIP or CNP) were mixed in an Eppendorf vial and incubated for 120 min. at 37° C. The enzymatic reaction was subsequently terminated by heating to 95° C. for 5 min. […]
as §8
(§12) The percentage (=%) of hydrolysis was calculated on the basis of the peak area of the undegraded peptide for an enzyme containing sample Y in correlation to a sample containing the same concentration of peptide without enzyme (blank) by the following equation: % hydrolysis=100*(blank−Y) […]

[4] = molecular target: T2, NEP (prepared from pig kidney cortex); assay: Activity assay: breakdown of VIP and CNP by NEP; type: biochemical; conditions: 120 min at 37° C., no inhibitor
Description: as §3, §4, §11, §8, §12

patients with ED = conditions: intracavernosal injection, combined with the α-adrenoceptor antagonist phentolamine; cited from earlier work
[5] = substrate CNP (32-53), read-out: inhibition of breakdown of CNP by hSEP IC50
[6] = substrate VIP, read-out: inhibition of breakdown of VIP by hSEP IC50
[7] = inhibition of breakdown of CNP by NEP IC50, substrate CNP (32-53)
[8] = inhibition of breakdown of VIP by NEP IC50, substrate VIP
[9] = substrate CNP (32-53), read-out: inhibition of breakdown of CNP by NEP IC50
[10] = substrate VIP, read-out: inhibition of breakdown of VIP by NEP IC50

T2 sequence (A0A4X1SQE6 entry or part of it): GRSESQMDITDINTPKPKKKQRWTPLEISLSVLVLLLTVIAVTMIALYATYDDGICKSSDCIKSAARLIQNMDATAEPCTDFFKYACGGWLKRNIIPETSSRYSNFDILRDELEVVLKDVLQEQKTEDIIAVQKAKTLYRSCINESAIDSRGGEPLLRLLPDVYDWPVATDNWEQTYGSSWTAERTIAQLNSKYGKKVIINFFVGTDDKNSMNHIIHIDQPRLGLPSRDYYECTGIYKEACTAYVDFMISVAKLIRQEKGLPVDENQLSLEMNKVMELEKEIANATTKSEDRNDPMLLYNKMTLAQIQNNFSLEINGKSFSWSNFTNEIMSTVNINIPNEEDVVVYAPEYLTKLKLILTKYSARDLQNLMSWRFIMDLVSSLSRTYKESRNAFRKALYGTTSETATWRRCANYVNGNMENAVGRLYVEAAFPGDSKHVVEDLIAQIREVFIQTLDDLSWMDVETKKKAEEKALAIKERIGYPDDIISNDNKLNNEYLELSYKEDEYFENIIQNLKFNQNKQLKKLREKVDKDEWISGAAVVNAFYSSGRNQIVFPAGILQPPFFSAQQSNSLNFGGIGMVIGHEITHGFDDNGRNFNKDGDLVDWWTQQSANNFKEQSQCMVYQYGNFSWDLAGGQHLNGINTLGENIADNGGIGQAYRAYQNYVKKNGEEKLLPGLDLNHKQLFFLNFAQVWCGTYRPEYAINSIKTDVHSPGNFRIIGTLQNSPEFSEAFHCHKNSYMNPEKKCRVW

For `O=C(O)CNC(=O)C(CS)Cc1ccccc1` (racemic) [thiorphan, reference compound], the pIC50 [1, 5] was < 6.00, the pIC50 [1, 6] was < 6.00 and the pIC50 [2, 7] was 8.08. The pIC50 [2, 8] was 8.19 and the “Maximal big-ET-induced contraction” value (human corpus cavernosum) was 91.57 percentage of the contractile responses induced by 80 mM of KCl.
In the case of `O=C(O)CN1C(=O)C(NC(=O)C2(CC(CCc3ccccc3)C(=O)O)CCCC2)CCc2ccccc21` (stereo not shown) [Cpd. of Formula IV, 2-[1-(1-carboxymethyl-2-oxo-2,3,4,5-tetrahydro-1H-benzo[b]azepin-3-ylcarbamoyl)-cyclopentylmethyl]-4-phenyl-butyric acid], the “Maximal big-ET-induced contraction” value (human corpus cavernosum) was 32.80 percentage of the contractile responses induced by 80 mM of KCl.
In the case of `Cc1nn(-c2ccccc2)c(NC(=O)NS(=O)(=O)c2ccc(Cl)cc2)c1C#N` [SM-19712, reference compound], the “Maximal big-ET-induced contraction” value (human corpus cavernosum) was 85.10 percentage of the contractile responses induced by 80 mM of KCl.
Compound `CCOP(=O)(CC1(C(=O)N[C@H]2CCc3ccccc3N(CC(=O)OC(C)(C)C)C2=O)CCCC1)OCc1ccccc1` (stereo partly drawn) [compound 2, (3S)-(3-{[1-(Benzyloxy-ethoxy-phosphorylmethyl)-cyclopentanecarbonyl]-amino}-2-oxo-2,3,4,5-tetrahydro-benzo[b]azepin-1-yl)-acetic acid tert-butyl ester] has a pIC50 [1, 5] of 8.55, a pIC50 [1, 6] of 8.40 and a pIC50 [2, 7] of 8.64. The pIC50 [2, 8] was 8.80.
Work on `CCOC(=O)C(CCc1ccccc1)CC1(C(=O)NC2CCc3ccccc3N(CC(=O)O)C2=O)CCCC1` (stereo not shown) [compound of Formula II, 2-[1-(1-carboxymethyl-2-oxo-2,3,4,5-tetrahydro-1H-benzo[b]azepin-3-ylcarbamoyl)-cyclopentylmethyl]-4-phenyl-butyric acid ethyl ester] yielded a pIC50 [1, 5] of 9.15, a pIC50 [1, 6] of 8.46 and a pIC50 [2, 9] of 8.12. The pIC50 [2, 10] was 8.48.
`CCOC(=O)[C@H](CCc1cccc2ccccc12)CC1(C(=O)N[C@H]2CCc3ccccc3N(CC(=O)O)C2=O)CCCC1` [compound of Formula III, {(3S)-3-[({1-[(2R)-2-(ethoxycarbonyl)-4-(1-naphthyl)butyl]cyclopentyl}carbonyl)amino]-2-oxo-2,3,4,5-tetrahydro-1H-1-benzazepin-1-yl}acetic acid] gave a pIC50 [1, 5] of 8.66, a pIC50 [1, 6] of 8.54 and a pIC50 [2, 9] of 8.18. For the same compound, the pIC50 [2, 10] was 8.38.
With `O=C(O)CN1C(=O)C(NC(=O)C2(CC(CCc3cccc4ccccc34)C(=O)O)CCCC2)CCc2ccccc21` (stereo not shown) [cpd. of Formula V, 2-[1-(1-carboxymethyl-2-oxo-2,3,4,5-tetrahydro-1H-benzo[b]azepin-3-ylcarbamoyl)-cyclopentylmethyl]-4-naphthalen-1-yl-butyric acid] the “Maximal big-ET-induced contraction” value (human corpus cavernosum) was 49.60 percentage of the contractile responses induced by 80 mM of KCl.
In the case of “CNP: C-type natriuretic peptide, substrate CNP (32-53), supplier Bachem”, the “degradation at t = 2 h by hSEP” value [3] was 46% and the “degradation at t = 2 h by NEP” value [4] was 39%.
In the case of “VIP: vasoactive intestinal peptide, substrate, supplier Bachem”, the “degradation at t = 2 h by hSEP” value [3] is listed as 36%, the “degradation at t = 2 h by NEP” value [4] is listed as 28% and the “response rate (erections sufficient for sexual intercourse)” value (patients with ED) is listed as 67%.
